Laboratory results as given in ChEMBL document CHEMBL6177961, “Structure-Based Analysis of Semisynthetic Anti-TB Rufomycin Analogues” (J Nat Prod, 2025).
Values after ≈ are worked out from the molar mass of the structure shown.

Tests used:
[1] = Selectivity index, ratio of IC50 for cytotoxicity against African green monkey Vero cells to MIC for antimycobacterial activity against Mycobacterium tuberculosis H37Rv ATCC 27294; assay type: toxicity, cell-based; conditions: read-out: Selectivity Index
[2] = tested on: Mycobacterium tuberculosis; test: Antimycobacterial activity against Mycobacterium tuberculosis H37Rv ATCC 27294 assessed as reduction in bacterial growth by microplate alamar blue assay; assay type: functional
[3] = tested on: Mycobacteroides abscessus; test: Antimycobacterial activity against Mycobacterium abscessus ATCC 19977 assessed as reduction in bacterial growth by microplate Alamar blue assay; assay type: functional
[4] = tested on: Mycobacterium avium; test: Antimycobacterial activity against Mycobacterium avium assessed as reduction in bacterial growth; assay type: functional
[5] = Cytotoxicity against African green monkey Vero cells; assay type: toxicity, cell-based; conditions: African green monkey (Chlorocebus sabaeus)
[6] = Binding affinity to full length Mycobacterium tuberculosis ClpC1 assessed as dissociation constant by SPR analysis
[7] = Binding affinity to N-terminal Mycobacterium tuberculosis ClpC1 assessed as dissociation constant by SPR analysis

Structure (SMILES) | selectivity ratio [1] | MIC [2] | MIC [3] | MIC [4] | IC50 [5] | Kd [6] | Kd [7]
C/C=C/C[C@@H]1NC(=O)[C@H](CC(C)C)N2C=C(C)C[C@@H](C2=O)N(C)C(=O)[C@H](C)NC(=O)[C@H](Cc2ccc(OC)c([N+](=O)[O-])c2)NC(=O)[C@H](CC(C)C)N(C)C(=O)[C@H](Cc2cn(C(C)(C)[C@H]3CO3)c3ccccc23)NC1=O | 1300 | 0.073 µM (≈ 0.0758 µg/mL) | 2.3 µM (≈ 2.39 µg/mL) | > 10 µM | 98000 nM |  | 
C/C=C/C[C@@H]1NC(=O)[C@H](CC(C)C)N2C(=O)[C@H](C[C@@H](C)[C@H]2OCCCC)N(C)C(=O)[C@H](C)NC(=O)[C@H](Cc2ccc(O)c([N+](=O)[O-])c2)NC(=O)[C@H](CC(C)C)N(C)C(=O)[C@H](Cc2cn(C(C)(C)[C@H](O)CCl)c3ccccc23)NC1=O |  | 4.3 µM (≈ 4.88 µg/mL) | > 10 µM |  | > 100000 nM | 170 nM | 210 nM
C/C=C/C[C@@H]1NC(=O)[C@H](CC(C)C)N2C=C(C)C[C@@H](C2=O)N(C)C(=O)[C@H](C)NC(=O)[C@H](Cc2ccc(OC(=O)c3ccccc3)c([N+](=O)[O-])c2)NC(=O)[C@H](CC(C)C)N(C)C(=O)[C@H](Cc2cn(C(C)(C)[C@H](O)CCl)c3ccccc23)NC1=O | > 1900 | 0.052 µM (≈ 0.0606 µg/mL) | 2 µM (≈ 2.33 µg/mL) | > 10 µM | > 100000 nM |  | 
C/C=C/C[C@@H]1NC(=O)[C@H](CC(C)C)N2C(=O)[C@H](CC(C)[C@H]2OC)N(C)C(=O)[C@H](C)NC(=O)[C@H](Cc2ccc(O)c([N+](=O)[O-])c2)NC(=O)[C@H](CC(C)C)N(C)C(=O)[C@H](Cc2cn(C(C)(C)[C@H](O)COC)c3ccccc23)NC1=O (some centres not stated) | > 13000 | 0.008 µM (≈ 0.00871 µg/mL) | 0.11 µM (≈ 0.12 µg/mL) | 0.4 µM (≈ 0.435 µg/mL) | > 100000 nM | 72 nM | 75 nM
C/C=C/C[C@@H]1NC(=O)[C@H](CC(C)C)N2C=C(C)C[C@@H](C2=O)N(C)C(=O)[C@H](C)NC(=O)[C@H](Cc2ccc(O)c(NC(=O)CCl)c2)NC(=O)[C@H](CC(C)C)N(C)C(=O)[C@H](Cc2cn(C(C)(C)[C@H](O)CCl)c3ccccc23)NC1=O | > 1000 | 0.098 µM (≈ 0.109 µg/mL) | 2.2 µM (≈ 2.44 µg/mL) | > 10 µM | > 100000 nM | 310 nM | 220 nM
CO[C@H]1/C=C/O[C@@]2(C)Oc3c(C)c(O)c4c(O)c(c(/C=N/N5CCN(C)CC5)c(O)c4c3C2=O)NC(=O)/C(C)=C\C=C\[C@H](C)[C@H](O)[C@@H](C)[C@@H](O)[C@@H](C)[C@H](OC(C)=O)[C@@H]1C [RIFAMPIN] |  | 0.03 µM (≈ 0.0247 µg/mL) | > 4 µM |  | > 122000 nM |  | 
C/C=C/C[C@@H]1NC(=O)[C@H](CC(C)C)N2C=C(C)C[C@@H](C2=O)N(C)C(=O)[C@H](C)NC(=O)[C@H](Cc2ccc(O)c(N)c2)NC(=O)[C@H](CC(C)C)N(C)C(=O)[C@H](Cc2cn(C(C)(C)[C@H](O)CCl)c3ccccc23)NC1=O | > 110 | 0.89 µM (≈ 0.917 µg/mL) | 8.3 µM (≈ 8.55 µg/mL) | > 10 µM | > 100000 nM |  | 
C/C=C/C[C@@H]1NC(=O)[C@H](CC(C)C)N2C=C(C)C[C@@H](C2=O)N(C)C(=O)[C@H](C)NC(=O)[C@H](Cc2ccc3ocnc3c2)NC(=O)[C@H](CC(C)C)N(C)C(=O)[C@H](Cc2cn(C(C)(C)[C@H](O)CCl)c3ccccc23)NC1=O | > 830 | 0.12 µM (≈ 0.125 µg/mL) | 2.4 µM (≈ 2.5 µg/mL) | > 10 µM | > 100000 nM | 430 nM | 300 nM
C/C=C/C[C@@H]1NC(=O)[C@H](CC(C)C)N2C(=O)[C@H](CC(C)[C@H]2OC)N(C)C(=O)[C@H](C)NC(=O)[C@H](Cc2ccc(O)c([N+](=O)[O-])c2)NC(=O)[C@H](CC(C)C)N(C)C(=O)[C@H](Cc2cn(C(C)(C)[C@H]3CO3)c3ccccc23)NC1=O (some centres not stated) | > 53000 | 0.002 µM (≈ 0.00211 µg/mL) | 0.15 µM (≈ 0.158 µg/mL) | 1.4 µM (≈ 1.48 µg/mL) | > 100000 nM |  | 
C/C=C/C[C@@H]1NC(=O)[C@H](CC(C)C)N2C(=O)[C@H](CC(C)[C@H]2OC)N(C)C(=O)[C@H](C)NC(=O)[C@H](Cc2ccc(OC(C)=O)c([N+](=O)[O-])c2)NC(=O)[C@H](CC(C)C)N(C)C(=O)[C@H](Cc2cn(C(C)(C)[C@H](O)CCl)c3ccccc23)NC1=O (some centres not stated) | > 20000 | 0.005 µM (≈ 0.00567 µg/mL) | 0.21 µM (≈ 0.238 µg/mL) | 0.21 µM (≈ 0.238 µg/mL) | > 100000 nM | 42 nM | 38 nM
C/C=C/C[C@@H]1NC(=O)[C@H](CC(C)C)N2C(=O)[C@H](CC(C)[C@H]2OC)N(C)C(=O)[C@H](C)NC(=O)[C@H](Cc2ccc(O)c([N+](=O)[O-])c2)NC(=O)[C@H](CC(C)C)N(C)C(=O)[C@H](Cc2cn(C(C)(C)[C@H](O)CCl)c3ccccc23)NC1=O (some centres not stated) | > 20000 | 0.005 µM (≈ 0.00546 µg/mL) | 0.25 µM (≈ 0.273 µg/mL) | 0.4 µM (≈ 0.437 µg/mL) | > 100000 nM | 96 nM | 66 nM
C/C=C/C[C@@H]1NC(=O)[C@H](CC(C)C)N2C=C(C)C[C@@H](C2=O)N(C)C(=O)[C@H](C)NC(=O)[C@H](Cc2ccc(O)c([N+](=O)[O-])c2)NC(=O)[C@H](CC(C)C)N(C)C(=O)[C@H](Cc2cn(C(C)(C)[C@H](O)CCl)c3ccccc23)NC1=O |  | 0.019 µM (≈ 0.0202 µg/mL) | 1.1 µM (≈ 1.17 µg/mL) | 4.8 µM (≈ 5.09 µg/mL) | > 100000 nM |  | 
C/C=C/C[C@@H]1NC(=O)[C@H](CC(C)C)N2C(=O)[C@H](CC(C)[C@H]2O)N(C)C(=O)[C@H](C)NC(=O)[C@H](Cc2ccc(O)c([N+](=O)[O-])c2)NC(=O)[C@H](CC(C)C)N(C)C(=O)[C@H](Cc2cn(C(C)(C)[C@H]3CO3)c3ccccc23)NC1=O (mixture of isomers) |  | 0.019 µM | 0.29 µM | 1.2 µM |  | 110 nM | 83 nM
C/C=C/C[C@@H]1NC(=O)[C@H](CC(C)C)N2C(=O)[C@H](C[C@@H](C)[C@@H]2OCCCC)N(C)C(=O)[C@H](C)NC(=O)[C@H](Cc2ccc(O)c([N+](=O)[O-])c2)NC(=O)[C@H](CC(C)C)N(C)C(=O)[C@H](Cc2cn(C(C)(C)[C@H](O)CCl)c3ccccc23)NC1=O | 120 | 0.77 µM (≈ 0.874 µg/mL) | 9.4 µM (≈ 10.7 µg/mL) | > 10 µM | 95000 nM | 720 nM | 600 nM
C/C=C/C[C@@H]1NC(=O)[C@H](CC(C)C)N2C(=O)[C@H](CC(C)[C@H]2O)N(C)C(=O)[C@H](C)NC(=O)[C@H](Cc2ccc(OC)c([N+](=O)[O-])c2)NC(=O)[C@H](CC(C)C)N(C)C(=O)[C@H](Cc2cn(C(C)(C)[C@H]3CO3)c3ccccc23)N(C)C1=O (some centres not stated) | > 1900 | 0.054 µM (≈ 0.0578 µg/mL) | 0.58 µM (≈ 0.621 µg/mL) | 9 µM (≈ 9.63 µg/mL) | > 100000 nM | 130 nM | 120 nM
C/C=C/C[C@@H]1NC(=O)[C@H](CC(C)C)N2C(=O)[C@H](CC(C)[C@H]2O)N(C)C(=O)[C@H](C)NC(=O)[C@H](Cc2ccc(OC(C)=O)c([N+](=O)[O-])c2)NC(=O)[C@H](CC(C)C)N(C)C(=O)[C@H](Cc2cn(C(C)(C)[C@H]3CO3)c3ccccc23)NC1=O (mixture of isomers) | 11000 |  |  |  |  |  | 
C/C=C/C[C@@H]1NC(=O)[C@H](CC(C)C)N2C=C(C)C[C@@H](C2=O)N(C)C(=O)[C@H](C)NC(=O)[C@H](Cc2ccc3c(c2)N=C(C)CC(C)(C)O3)NC(=O)[C@H](CC(C)C)N(C)C(=O)[C@H](Cc2cn(C(C)(C)[C@H](O)CCl)c3ccccc23)NC1=O | > 130 | 0.79 µM (≈ 0.878 µg/mL) | 4.5 µM (≈ 5 µg/mL) | > 10 µM | > 100000 nM |  | 
C/C=C/C[C@@H]1NC(=O)[C@H](CC(C)C)N2C(=O)[C@H](CC(C)[C@H]2OC)N(C)C(=O)[C@H](C)NC(=O)[C@H](Cc2ccc(OC)c([N+](=O)[O-])c2)NC(=O)[C@H](CC(C)C)N(C)C(=O)[C@H](Cc2cn(C(C)(C)[C@H]3CO3)c3ccccc23)NC1=O (some centres not stated) | 17000 | 0.006 µM (≈ 0.00642 µg/mL) | 0.53 µM (≈ 0.567 µg/mL) | 1.2 µM (≈ 1.28 µg/mL) | 100000 nM | 64 nM | 
C/C=C/C[C@@H]1NC(=O)[C@H](CC(C)C)N2C(=O)[C@H](CC(C)[C@H]2OC)N(C)C(=O)[C@H](C)NC(=O)[C@H](Cc2ccc(OC)c([N+](=O)[O-])c2)NC(=O)[C@H](CC(C)C)N(C)C(=O)[C@H](Cc2cn(C(C)(C)[C@H]3CO3)c3ccccc23)N(C)C1=O (some centres not stated) | 1400 | 0.065 µM (≈ 0.0705 µg/mL) | 2.1 µM (≈ 2.28 µg/mL) | 9 µM (≈ 9.76 µg/mL) | 90000 nM |  | 
C/C=C/C[C@@H]1NC(=O)[C@H](CC(C)C)N2C(=O)[C@H](CC(C)[C@H]2OC(C)=O)N(C)C(=O)[C@H](C)NC(=O)[C@H](Cc2ccc(OC(C)=O)c([N+](=O)[O-])c2)NC(=O)[C@H](CC(C)C)N(C)C(=O)[C@H](Cc2cn(C(C)(C)[C@H]3CO3)c3ccccc23)NC1=O (some centres not stated) | > 23000 | 0.004 µM (≈ 0.00451 µg/mL) | 0.27 µM (≈ 0.304 µg/mL) | 0.96 µM (≈ 1.08 µg/mL) | > 100000 nM | 16 nM | 
C/C=C/C[C@@H]1NC(=O)[C@H](CC(C)C)N2C=C(C)C[C@@H](C2=O)N(C)C(=O)[C@H](C)NC(=O)[C@H](Cc2ccc(OC(C)=O)c([N+](=O)[O-])c2)NC(=O)[C@H](CC(C)C)N(C)C(=O)[C@H](Cc2cn(C(C)(C)[C@H](O)CCl)c3ccccc23)NC1=O | > 4500 | 0.022 µM (≈ 0.0243 µg/mL) | 1.1 µM (≈ 1.21 µg/mL) | 5.8 µM (≈ 6.4 µg/mL) | > 100000 nM |  | 
C/C=C/C[C@@H]1NC(=O)[C@H](CC(C)C)N2C(=O)[C@H](C[C@H](C)[C@@H]2OCCCC)N(C)C(=O)[C@H](C)NC(=O)[C@H](Cc2ccc(O)c([N+](=O)[O-])c2)NC(=O)[C@H](CC(C)C)N(C)C(=O)[C@H](Cc2cn(C(C)(C)[C@H](O)CCl)c3ccccc23)NC1=O | > 2100 | 0.048 µM (≈ 0.0545 µg/mL) | 4.2 µM (≈ 4.77 µg/mL) |  | > 100000 nM | 29 nM | 27 nM
C/C=C/C[C@@H]1NC(=O)[C@H](CC(C)C)N2C(=O)[C@H](CC(C)[C@H]2OCCC)N(C)C(=O)[C@H](C)NC(=O)[C@H](Cc2ccc(O)c([N+](=O)[O-])c2)NC(=O)[C@H](CC(C)C)N(C)C(=O)[C@H](Cc2cn(C(C)(C)[C@H](O)CCl)c3ccccc23)NC1=O (some centres not stated) | > 13 | 0.75 µM (≈ 0.841 µg/mL) | 2.1 µM (≈ 2.35 µg/mL) | > 10 µM | > 10000 nM |  | 
NNC(=O)c1ccncc1 [ISONIAZID] |  | 0.46 µM (≈ 0.0631 µg/mL) | > 8 µM |  |  |  | 
